Results: US9983200B2, “Compositions and methods for predicting age of onset of a lysosomal storage disease or a disease associated with a lysosomal defect” (The United States of America, as represented by the …, priority 2013, dated 2018)
Entries after “also recorded” stand apart in the source; their conditions may differ.

Columns and labels:
[1] = test system: fibroblasts isolated from an individual with NPC1 disease (NPC-25); assay: LysoTracker Red staining quantified by FACS in NPC1 patient fibroblasts; assay type: cell-based, human; settings: for LysoTracker Red staining intensity (NPC1-associated cholesterol storage defects): NPC-25 cells; for increased LysoTracker staining in NPC1 patient fibroblasts: Example 2, FIGS. 8 and 9; for fold change in fluorescence (stained/unstained): NPD patient samples, Example 1, FIGS. 4, 5A, 5B; for normalizing fold-change in fluorescence in cells of NPD subjects: in vitro
Description: (D) Bar graphs showing the percentage change of LysoTracker (y-axis) staining intensity in untreated NPC-25 cells (blue bar, set to 100%) as compared to NPC25 cells treated with MβCD, α-T or δ-T (green bars). […] MβCD (Sigma-Aldrich, St. Louis, Mo. cat. #C4555) was resuspended in sterile H2O to a 1 mM stock solution, while α-T and δ-T were dissolved in DMSO to 40 μM, therefore the untreated controls were no drug added for methyl-β-cyclodextrin treatment, and DMSO only added for α-T and δ-T treatment. Statistical analyses performed using Prism (GraphPad).
Cells were cultured in DMEM with fetal bovine serum, L-glutamine, and antibiotics at 5% CO2 in a 37° C. incubator. Cell staining was carried out as follows: Lysotracker-Red Staining Protocol: • Day1—Change media 24 hours before FACS analysis, if treating cells with methyl beta cyclodextrin add the drug as well. • Day2—Note: WORK IN THE DARK, (PROTECT TUBES FROM THE LIGHT while using lysotracker-red) • Dilute LYSOTRACKER-red (1:1000) for a final concentration of 1 μM with culture media. • Incubate cells with lysotracker in the incubator (37° C.) for 30 minutes. • Aspirate media and wash twice with 1×PBS (2 mls each time). • Add 300 μls of Trypsin • Resuspend cells into 5 mls of media and centrifuge at 1000 rpm for 10 minutes in order to obtain pellet. • Resuspend the pellet into 500 uls of media and transfer to FACS vials at 4° C. in the dark. • Perform FACS analysis.
The fluorescence of the cell samples was quantified before and after staining and the fold change in fluorescence was calculated as the ratio of fluorescent intensity after dye/cell autofluorescence. This change was then plotted as a function of time.
Cells were plated onto 60 mm tissue culture dishes and cultured to 70-80% confluency. Media were replaced 24 h prior to analysis. On the day of analysis, cells were incubated at 37° C. for 30 min in fresh media containing 1 μM LysoTracker Red dye (LysoTracker) in 3 mL medium/60 mm dish. Cells were then given two PBS washes, trypsinized, pelleted and resuspended in 500 μL medium. FACS data were collected on 10,000 cells using a FACSCalibur (Becton Dickinson Biosciences, Franklin Lakes, N.J.) equipped with Cell Quest software and analyzed using FlowJo (Tree Star). Fold change in LysoTracker staining was calculated as the ratio of geometric means of stained/unstained samples. Duplicate biological replicates were analyzed on three different days, totaling 6 independent samples per cell line.

cultured cells = settings: cited from earlier work
[2] = test system: fibroblasts (NPC1, NPC2, Wolman, Batten, Fabry, Farber, Niemann-Pick A, Sanfilippo type B, Tay-Sachs diseases); settings: 40 μM, fibroblasts of NPC1, NPC2, Wolman; cited from earlier work
[3] = test system: control fibroblasts (CTL1); assay: LysoTracker Red staining quantified by FACS in control (wild type) fibroblasts; assay type: cell-based, human; settings: wild type samples, Example 1, FIGS. 4, 5A
Description: (A, B) Histograms of FACS analysis of control fibroblasts (A, CTL1) and fibroblasts isolated from an individual with NPC1 disease (B, NPC-25). […] Pink line indicates distribution of unstained cells; blue line indicates LysoTracker-stained cells transfected with an empty control vector (pLenti6.2 Vector/V5 DEST, Invitrogen); green line indicates LysoTracker-stained cells transfected with a human NPC1 cDNA expression vector (Origene, Rockville, Md.; cat. #SC120010). At 72 hours post-transfection, cells were stained with LysoTracker Red dye and analyzed by FACS. […]
The fluorescence of the cell samples was quantified before and after staining and the fold change in fluorescence was calculated as the ratio of fluorescent intensity after dye/cell autofluorescence. […]
Cells were plated onto 60 mm tissue culture dishes and cultured to 70-80% confluency. […] FACS data were collected on 10,000 cells using a FACSCalibur (Becton Dickinson Biosciences, Franklin Lakes, N.J.) equipped with Cell Quest software and analyzed using FlowJo (Tree Star). Fold change in LysoTracker staining was calculated as the ratio of geometric means of stained/unstained samples. Duplicate biological replicates were analyzed on three different days, totaling 6 independent samples per cell line.

[4] = test system: fibroblasts isolated from an individual with NPC1 disease (NPC-25); assay: LysoTracker Red staining quantified by FACS in NPC1 patient fibroblasts; assay type: cell-based, human; settings: NPC4 cells

Compound	removal of cholesterol from cultured cells (cultured cells)	increased LysoTracker staining in NPC1 patient fibroblasts [1]	fold change in fluorescence (stained/unstained) [1]	normalizing fold-change in fluorescence in cells of NPD subjects [1]	also measured
Cc1c(C)c2c(c(C)c1O)CC[C@@](C)(CCC[C@H](C)CCC[C@H](C)CCCC(C)C)O2 [α-T, α-tocopherol]					LysoTracker Red staining intensity (NPC1-associated cholesterol storage defects) ([1]; 40 μM α-T for 72 hours, vs DMSO only): not
OC[C@H]1O[C@@H]2O[C@H]3[C@H](O)[C@@H](O)[C@@H](O[C@H]4[C@H](O)[C@@H](O)[C@@H](O[C@H]5[C@H](O)[C@@H](O)[C@@H](O[C@H]6[C@H](O)[C@@H](O)[C@@H](O[C@H]7[C@H](O)[C@@H](O)[C@@H](O[C@H]8[C@H](O)[C@@H](O)[C@@H](O[C@H]1[C@H](O)[C@H]2O)O[C@@H]8CO)O[C@@H]7CO)O[C@@H]6CO)O[C@@H]5CO)O[C@@H]4CO)O[C@@H]3CO [β-cyclodextrin]	remove cholesterol				
Cc1cc(O)cc2c1O[C@](C)(CCC[C@H](C)CCC[C@H](C)CCCC(C)C)CC2 [δ-T, δ-tocopherol]		lessened			LysoTracker Red staining intensity (NPC1-associated cholesterol storage defects) ([1]; 40 μM δ-T for 72 hours, vs DMSO only): relieved NPC1-associated cholesterol storage defects; lysosomal storage defects (including LysoTracker staining) [2]: reduced lysosomal storage defects
Methyl-β-cyclodextrin [MβCD]	remove cholesterol; also recorded: more efficient than β-cyclodextrin	lessened	reduced		fold change in fluorescence (stained/unstained) [3]: reduced; LysoTracker Red staining intensity (NPC1-associated cholesterol storage defects) ([1]; 300 μM MβCD for 24 hours, vs untreated cells (100%)): relieved NPC1-associated cholesterol storage defects
Tocopherol			effective in reducing the fold change in fluorescence	useful in normalizing fold-change in fluorescence	
cyclodextrin				useful in normalizing fold-change in fluorescence; also recorded: normalize the fold-change in fluorescence	fluorescence values by FACS (FIG. 1A) [4]: corrected
